# Experimental data: article PMC7586386, “Discovery of Covalent Inhibitors Targeting the Transcriptional Enhanced Associate Domain Central Pocket” (Journal of Medicinal Chemistry, 2020)
# Tests used:
# hTEAD4 = target: T1, hTEAD4 (Homo sapiens, UniProt Q15561); assay: Cellular thermal shift assay (CETSA) in HCT116 cell lysates; assay type: cell-based; conditions: 50 μM, 10 min, DMSO 49.8
# T1 construct: Target engagement in HCT116 cell lysates was proven by means of a cellular thermal shift assay; endogenous in cells; host or cells: HCT116 cell lysate
# Protocol: HCT116 cells were grown in Dulbecco’s modified Eagle’s medium (Sigma-Aldrich, #P04-03550) containing 10% fetal bovine serum, 1× NEAA (Sigma-Aldrich, # P08-32800) and 1 mM sodium pyruvate (Sigma-Aldrich, #S8636) until they reached 90% confluency. Cells were detached, transferred to two separate tubes, and washed three times with PBS. Then, 0.6 mL of PBS containing 0.04% NP-40 was added to each tube and cells were lysed by means of freeze and thaw. Lysates were centrifuged (Beckman Optima MAX-TL) at 100,000g, 4 °C for 25 min and protein concentration was determined using the DC Protein Assay Kit I (Bio-Rad, #5000111). Aliquots (1.5 mL) containing 1 mg/mL protein were stored at −80 °C until further usage.
# Compound 19 (2.75 μL 10 mM stock, 50 μM) or DMSO (2.75 μL) was added to 550 μL of HCT116 lysates (1 mg/mL), samples were mixed and incubated for 10 min at room temperature. Treated and nontreated lysates were divided into ten aliquots, each 50 μL in PCR tubes. The aliquots were individually heated at different temperatures (Eppendorf Mastercycler ep Gradient S). […] To 16 μL of each supernatant was added 4 μL of 5× loading buffer and incubated for 5 min at 95 °C, before samples were analyzed by immunoblotting. […]
# Images were analyzed with ImageJ (FUJI). […]
# hTEAD1–4 = assay: Thiol conjugation assay, TEAD homologues (range over all four); assay type: binding, human
# Protocol: (§1) To serially diluted solutions of the tested compounds in 5 μL of assay buffer [HEPES (25 mM) and NaCl (150 mM) pH 6.5], freshly prepared 5 μL of 0.45 μM protein solution was added and incubated at room temperature for 10 min, followed by addition of 5 μL of 0.45 μM CPM solution, giving a 15 μL final assay volume, 150 nM protein, and 150 nM CPM. The assay plate was shaken at room temperature for 1 h before measuring the fluorescence (Ex/Em: 380/470 nm). Compound 19 was used as an internal standard to determine 100% inhibition.
# [1] = Assay media stability (HPLC); assay type: physicochemical
# Protocol: The compounds were incubated in MES (25 mM), pH 6.5 buffer or HEPES (25 mM) and NaCl (150 mM) pH 6.5 buffer for an hour at room temperature before injecting into a reverse-phase HPLC system (ThermoScientific_Ultimate 3000) equipped with a C18 column (2/50 Nucleodur C18 gravity 1.8 μm von Macherey-Nagel).
# Ala mutant of mTEAD4 = target: T2, Ala mutant of mTEAD4 (Mus musculus, UniProt Q62296, C360A); assay: Thiol conjugation assay with cysteine mutant; assay type: binding; conditions: 10 μM compound
# T2 construct: N-terminal His6- and MBP-tagged mTEAD4^209–427 with Cys360Ala mutation; made in house; host or cells: E. coli BL21-CodonPlus (DE3)-RIPL
# Protocol: as §1
# Ser mutant of mTEAD4 = target: T3, Ser mutant of mTEAD4 (Mus musculus, UniProt Q62296, C360S); assay: Thiol conjugation assay with cysteine mutant; assay type: binding; conditions: 10 μM compound
# T3 construct: His (N); made in house
# Protocol: as §1
# T3 sequence (Q62296 whole entry C360S): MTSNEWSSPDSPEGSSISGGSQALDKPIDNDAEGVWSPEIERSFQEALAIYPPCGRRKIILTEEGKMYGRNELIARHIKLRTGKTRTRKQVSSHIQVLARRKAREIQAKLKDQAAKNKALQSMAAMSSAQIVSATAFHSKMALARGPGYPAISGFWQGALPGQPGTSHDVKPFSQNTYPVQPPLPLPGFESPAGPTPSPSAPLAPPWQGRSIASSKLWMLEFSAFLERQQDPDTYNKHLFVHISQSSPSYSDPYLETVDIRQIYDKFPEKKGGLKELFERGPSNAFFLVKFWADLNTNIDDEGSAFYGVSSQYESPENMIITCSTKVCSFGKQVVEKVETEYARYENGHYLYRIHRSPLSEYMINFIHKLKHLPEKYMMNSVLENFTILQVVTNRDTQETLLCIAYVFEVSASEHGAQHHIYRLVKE
# T1 sequence (Q15561 whole entry): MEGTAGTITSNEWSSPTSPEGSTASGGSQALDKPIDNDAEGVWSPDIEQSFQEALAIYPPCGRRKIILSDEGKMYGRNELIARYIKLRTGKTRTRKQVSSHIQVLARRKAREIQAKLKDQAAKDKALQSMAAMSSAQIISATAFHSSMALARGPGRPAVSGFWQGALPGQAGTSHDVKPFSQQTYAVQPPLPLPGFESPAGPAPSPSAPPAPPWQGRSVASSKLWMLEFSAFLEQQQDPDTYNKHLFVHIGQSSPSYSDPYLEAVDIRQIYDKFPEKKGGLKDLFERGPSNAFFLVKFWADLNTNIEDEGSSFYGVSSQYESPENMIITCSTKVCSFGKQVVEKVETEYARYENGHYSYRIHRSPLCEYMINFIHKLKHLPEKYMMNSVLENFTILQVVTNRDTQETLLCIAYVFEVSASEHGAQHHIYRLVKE
# T2 sequence (Q62296 209-427 C360A): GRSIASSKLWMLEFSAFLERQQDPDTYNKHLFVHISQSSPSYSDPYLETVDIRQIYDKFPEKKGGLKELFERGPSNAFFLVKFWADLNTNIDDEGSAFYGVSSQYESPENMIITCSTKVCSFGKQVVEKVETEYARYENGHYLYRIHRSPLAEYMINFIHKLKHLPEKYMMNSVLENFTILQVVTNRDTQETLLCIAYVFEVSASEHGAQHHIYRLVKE
structure (smiles),measurement,setting,value
"O=c1cc(CO)oc(C(Nc2ccccc2)c2ccccc2)c1O (stereo not drawn) [Compound 19, 3-Hydroxy-6-(hydroxymethyl)-2-(phenyl(phenylamino)methyl)-4H-pyran-4-one]",melting temperature of hTEAD4 (CETSA),hTEAD4,53.1 °C
same,IC50,hTEAD1–4,2.6 to 6.9 µM
same,stability in assay medium,"[1]; HEPES buffer (pH 6.5), 1 h",appearance of two small peaks was detected
same,stability in assay medium,"[1]; MES buffer, pH 6.5, 1 h, rt",stable
same,inhibition of the increase in fluorescence signal,Ala mutant of mTEAD4,cannot inhibit
same,inhibition of the increase in fluorescence signal,Ser mutant of mTEAD4,cannot inhibit
